This is an account of results in patent US20150190346A1, “COMPOSITIONS AND METHODS FOR TREATMENT OF ABNORMAL CELL GROWTH” (VERASTEM, INC., priority 2014, published 2015).

Where two headings read alike, the source gives them in different places.

As a reminder, the Tmax is the time from dosing to the highest level. Broadly, the half-life is the time in which the quantity being followed falls by half. A high value points to slow decline.

Data set [1] can be described thus: Phase I study: safety and tolerability (adverse events) of VS-6063 tablets. The class given is in vivo, human (healthy male subjects). An excerpt: In a Phase I, open-label, single center, single dose, partially randomized trial, the safety, bioavailability, and pharmacodynamics of prototype and reference formulations of VS-6063 were investigated in healthy male subjects. The study was comprised of four periods, each of which adhered to the same study design and involved 24 healthy male subjects between 40 and 65 years of age with a body mass index between 18.0 and 35.0 kg/m^2. Following a 28 day screening period, the subjects were admitted to the clinical unit the morning prior to dosing day (Day −1) and were dosed in the morning of Day 1. Subjects in Regimens A and B were administered VS-6063 following an overnight fast of about 10 hours, while subjects in Regimens C and D were administered VS-6063 within 30 minutes of starting a high fat breakfast, which was consumed within 25 minutes. Subjects remained on site until 36 hours after dosing. There was a minimum washout period of 7 days between the administration of each regimen. A follow-up phone call took place 7 to 10 days post final dose in periods 3 and 4 to ensure the ongoing well-being of the subjects.

The conditions of data set [2]: male, beagle, dog, in vivo, po.
Protocol: (§1) 4 groups of 1 male beagle dog per group received an oral gavage dose of VS-6063 in various formulations in a 4-session crossover design with a minimum 3-day washout period between dose sessions. In each session, VS-6063, VS-6063-25% SDD in Soluplus/PVP-A, VS-6063-25% physical mixture with Soluplus/PVP-A, and VS-6063-10% SDD in [sequence] L100-55 were administered at a target dose level of 10 mg API/kg. Blood samples (anticoagulant: K2EDTA) were scheduled for collection from each animal prior to dosing and at 0.25, 0.5, 1, 2, 4, 6, 8, 12 and 24 hours after dosing in each dose session. Blood samples were processed for plasma and the plasma was analyzed for VS-6063 by LC-MS/MS. Plasma concentration-time data for individual animals were analyzed to determine the pharmacokinetic profiles of VS-6063.
(§2) 4 groups of 1 male beagle dog per group received an oral gavage dose of VS-6063 in various formulations in a 4-session crossover design with a minimum 3-day washout period between dose sessions. In each session, VS-6063-25% physical mixture with Soluplus/PVP-A and VS-6063-25% SDD in Soluplus/PVP-A were administered at a target dose level of 20 mg API/kg and VS-6063-50% physical mixture with Soluplus/PVP-A was administered at target dose levels of 10 and 20 mg API/kg. Blood samples (anticoagulant: K2EDTA) were scheduled for collection from each animal prior to dosing and at 0.25, 0.5, 1, 2, 4, 6, 8, 12 and 24 hours after dosing in each dose session. Blood samples were processed for plasma and the plasma was analyzed for VS-6063 by LC-MS/MS. Plasma concentration-time data for individual animals were analyzed to determine the pharmacokinetic profiles of VS-6063.
(§3) VS-6063 was formulated (0.934 correction factor) at a target concentration of 10 mg API/mL in 0.5% (w/v) Methocel A4M in water with 0.1% (v/v) Tween 80. VS-6063-25% SDD in Soluplus/PVP-A was formulated (0.25 correction factor) at a target concentration of 10 mg API/mL in 0.5% (w/v) Methocel A4M in water. VS-6063-25% physical mixture with Soluplus/PVP-A was formulated (0.25 correction factor) at a target concentration of 10 mg API/mL in 0.5% (w/v) Methocel A4M in water. VS-6063-10% SDD in [sequence] L100-55 was formulated (0.10 correction factor) at a target concentration of 10 mg API/mL in 0.5% (w/v) Methocel A4M in water.
(§4) VS-6063-25% physical mixture with Soluplus/PVP-A and VS-6063-25% SDD in Soluplus/PVP-A were formulated (0.25 correction factor) at a target concentration of 10 mg API/mL in 0.5% (w/v) Methocel A4M in water. VS-6063-50% Physical mixture with Soluplus/PVP-A was formulated (0.50 correction factor) at target concentrations of 5 mg API/mL and 10 mg API/mL in 0.5% (w/v) Methocel A4M in water.
(§5) 4 groups of 1 male beagle dog per group received an oral gavage dose of VS-6063 in various formulations in a 4-session crossover design with a minimum 3-day washout period between dose sessions. In each session, VS-6063, VS-6063-25% SDD in Soluplus/PVP-A, VS-6063-25% physical mixture with Soluplus/PVP-A and VS-6063-10% SDD in [sequence] […] Food was returned at 4 hours post-dose.
(§6) Prior to dosing, the body weight of each animal was recorded. Doses (rounded to the nearest 0.01 mL) were calculated based on the pretreatment body weight (kg) and a dose volume of 1 mL/kg. Following the oral gavage dose, the gavage tube was flushed with 10 to 20 mL of water prior to removal of the tube. Dosing syringes were weighed immediately prior to and immediately after dosing each animal, and the quantity of formulation administered to each animal was determined from the difference in syringe weights.
(§7) 4 groups of 1 male beagle dog per group received an oral gavage dose of VS-6063 in various formulations in a 4-session crossover design with a minimum 3-day washout period between dose sessions.
A short description of a further data set: in vivo. As to conditions: male, beagle, dog, po.

Protocol for in vivo: as §1, §2, §3, §4, §5, §6, §7

As for `CNC(=O)c1ccc(Nc2ncc(C(F)(F)F)c(NCc3nccnc3N(C)S(C)(=O)=O)n2)cc1` [VS-6063], the “incidence of AEs” value in data set [1] (Regimen A (200 mg reference, fasted)) came out at 3 subjects; in data set [1] (Regimen B (100 mg prototype, fasted)), 2 subjects; in data set [1] (Regimen C (fed)) it was 5 subjects; in data set [1] (Regimen D (fed)) it was 1 subject. Further, in data set [1] (single dose, fed and fasted, reference and prototype formulations), the tolerability result was “well tolerated”. For the same molecule, in data set [1] (whole study), the “serious or severe adverse events” value is “no serious adverse events (AEs) or severe AEs”. Also, the “total AEs reported” value in data set [1] (whole study, reported by 9 subjects) amounted to 12 AEs. Further, the Mean AUCinf/Dose in data set [2] was 312 ng·h/mL per mg/kg. Moreover, the Tmax is 2.50 h in data set [2], 4 h in data set [2] (10 mg/kg), 2 h in the data set “in vivo” (10 mg/kg) and 2 to 4 h in “in vivo”. Moreover, the half-life in “in vivo” (10 mg/kg, t1/2) is roughly 3.9 h.
